What was measured:
[1] = target: PDE 4 (phosphodiesterase IV); assay: PDE 4 inhibiting effect (3H-cAMP hydrolysis, PDE 4 active fraction from Balb/c mouse liver); format: biochemical; conditions: PDE 4 fraction from Balb/c mice liver, 0.064 μM cAMP, 2 hours at 25° C.; read-out: PDE4 IC50
In short: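 PDE4 was taken from the soluble liver fraction of male Balb/c mice (12 weeks), purified on DEAE sepharose with a sodium acetate gradient. Inhibition was measured as hydrolysis of 3H-cAMP. The reaction was followed by Sephadex-QAE treatment in HEPES-Na pH 7.0.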

[2] = target: PDE 7 (phosphodiesterase VII) (Homo sapiens (Human), UniProt Q13946); assay: PDE 7 inhibiting effect (3H-cAMP hydrolysis, PDE 7 active fraction from MOLT-4 cells); format: biochemical; conditions: PDE 7 fraction from MOLT-4 cells, 0.064 μM cAMP, 10 μM rolipram, 2 hours at 25° C.; read-out: PDE7 IC50
Sequence of PDE 7 (phosphodiesterase VII) (Q13946 whole entry): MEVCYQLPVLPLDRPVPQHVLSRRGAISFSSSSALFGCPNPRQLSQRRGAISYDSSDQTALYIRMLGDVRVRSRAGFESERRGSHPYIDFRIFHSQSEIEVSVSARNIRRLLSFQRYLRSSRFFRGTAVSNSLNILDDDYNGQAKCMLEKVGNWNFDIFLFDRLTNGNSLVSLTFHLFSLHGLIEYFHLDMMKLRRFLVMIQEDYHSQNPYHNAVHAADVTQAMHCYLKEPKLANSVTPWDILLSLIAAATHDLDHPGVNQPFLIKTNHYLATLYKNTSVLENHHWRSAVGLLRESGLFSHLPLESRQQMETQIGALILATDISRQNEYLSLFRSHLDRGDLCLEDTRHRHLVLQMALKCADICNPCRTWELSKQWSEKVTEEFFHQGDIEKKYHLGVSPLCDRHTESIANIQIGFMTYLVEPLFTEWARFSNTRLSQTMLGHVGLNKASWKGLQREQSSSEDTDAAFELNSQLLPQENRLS
In short: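 PDE7 taken from the soluble fraction of human MOLT-4 T cells (homogenised in pH 7.5 Tris buffer, 100,000×G spin), partially purified on HiTrap Q with a 0–0.8 M NaCl gradient. Inhibition measured as ³H-cAMP hydrolysis, with product separated using Sephadex-QAE in 10 mM HEPES-Na pH 7.0.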

| Compound | IC50 [1] [nM] | IC50 [2] [nM] |
| --- | --- | --- |
| Cc1nn(C2CCOCC2)c2sc(C(=O)N[C@H]3CC[C@H](C(=O)N(C)C)CC3)cc12 [Example 349, N-{trans-4-[(Dimethylamino)carbonyl]cyclohexyl}-3-methyl-1-tetrahydro-2H-pyran-4-yl-1H-thieno[2,3-c]pyrazole-5-carboxamide] | 2800 | 78 |
| Cc1nn(C2CCCCC2)c2sc(C(=O)Nc3ccc(OCC(=O)N4CCN(C)CC4)cc3)cc12 [Example 76, 1-Cyclohexyl-3-methyl-N-{4-[2-(4-methyl-1-piperazinyl)-2-oxoethexy]-phenyl}-1H-thieno[2,3-c]pyrazole-5-carboxamide] | 2000 | 20 |
| CNC(=O)c1ccc(NC(=O)c2cc3c(C)nn(C4CCCCC4)c3s2)cc1 [Example 20] | > 30000 | 33 |
| Cc1nn(C2CCCCC2)c2sc(C(=O)Nc3ccc(C4CCN(C)CC4)cc3)cc12 [Example 142, 1-Cyclohexyl-3-methyl-N-[4(1-methyl-4-piperidinyl)phenyl]-1H-thieno[2,3-c]pyrazole-5-carboxamide] | 2000 | 14 |
| Cc1nn(C2CCOCC2)c2sc(C(=O)N[C@H]3CC[C@H](N4C[C@@H](C)O[C@@H](C)C4)CC3)cc12 [Example 402, N-[trans-4-(cis-2,6-Dimethylmorpholinyl)cyclohexyl]-3-methyl-1-tetrahydro-2H-pyran-4-yl-1H-thieno[2,3-c]pyrazole-5-carboxamide] | 7300 | 19 |
| Cc1nn(C2CCCCC2)c2sc(C(=O)N[C@H]3CC[C@H](N4CCCN(C)CC4)CC3)cc12 [Example 167, 1-Cyclohexyl-3-methyl-N-[trans-4-(4-methyl-1,4-diazepam-1-yl)-cyclohexyl]-1H-thieno[2,3-c]pyrazole-5-carboxamide] | 1000 | 15 |
| Cc1nn(C2CCCCC2)c2sc(C(=O)NCCN3CCN(C)C(=O)C3=O)cc12 [Example 228, 1-Cyclohexyl-3-methyl-N-[2-(4-methyl-2,3-dioxo-1-piperazinyl)ethyl]-1H-thieno[2,3-c]pyrazole-5-carboxamide] | 5800 | 51 |
| Cc1nn(C2CCCCC2)c2sc(C(=O)NCC(C)(C)CN3C(=O)CNC3=O)cc12 [Example 339, 1-Cyclohexyl-N-[3-(2,5-dioxo-1-imidazolidinyl)-2,2-dimethylpropyl]-3-methyl-1H-thieno[2,3-c]pyrazole-5-carboxamide] | 5100 | 20 |
| Cc1nn(C2CCCCC2)c2sc(C(=O)N[C@H]3CC[C@H](N4CCC(N(C)C)CC4)CC3)cc12 [Example 181, 1-Cyclohexyl-N-{trans-4-[4-(dimethylamino)-1-piperidinyl]-cyclohexyl}-3-methyl-1H-thieno[2,3-c]pyrazole-5-carboxamide] | 860 | 8.6 |
| COCCNC(=O)c1ccc(NC(=O)c2cc3c(C)nn(C4CCCCC4)c3s2)cc1 [Example 37, 1-Cyclohexyl-N-(4-{[(2-methoxyethyl)amino]carbonyl}phenyl)-3-methyl-1H-thieno[2,3-c]pyrazole-5-carboxamide] | 2000 | 28 |
| CC(=O)c1ccc(NC(=O)c2cc3c(C)nn(C4CCCCC4)c3s2)cc1 [Example 38, N-(4-Acetylphenyl)-1-cyclohexyl-3-methyl-1H-thieno[2,3-c]pyrazole-5-carboxamide] | 5000 | 33 |
| CNC1CCN(c2ccc(NC(=O)c3cc4c(C)nn(C5CCCCC5)c4s3)cc2Cl)CC1 [Example 165, N-{3-Chloro-4-[4-(methylamino)-1-piperidinyl]phenyl}-1-cyclohexyl-3-methyl-1H-thieno[2,3-c]pyrazole-5-carboxamide] | 650 | 20 |
| Cc1nn(C2CCCCC2)c2sc(C(=O)N[C@H]3CC[C@H](C(=O)O)C3)cc12 [Example 227, (1S,3S)-3-{[(1-Cyclohexyl-3-methyl-1H-thieno[2,3-c]pyrazol-5-yl)-carbonyl]amino}cyclopentanecarboxylic acid] | 10000 | 56 |
| Cc1nn(C2CCCCC2)c2sc(C(=O)Nc3ccc(N4C(=O)CN(C)C4=O)cc3)cc12 [Example 203, 1-Cyclohexyl-3-methyl-N-[4-(3-methyl-2,5-dioxo-1-imidazolidinyl)-phenyl]-1H-thieno[2,3-c]pyrazole-5-carboxamide] | 1400 | 6.1 |
| Cc1nn(C2CCCCC2)c2sc(C(=O)Nc3ccc(CN4CCC(O)CC4)nc3)cc12 [Example 413, 1-Cyclohexyl-N-{6-[(4-hydroxy-1-piperidinyl)methyl]-3-pyridinyl}-3-methyl-1H-thieno[2,3-c]pyrazole-5-carboxamide] | 2500 | 30 |
| Cc1nn(C2CCCCC2)c2sc(C(=O)Nc3ccc(C(=O)NCCN(C)C)nc3)cc12 [Example 381] | 670 | 22 |
| CC(=O)N[C@H]1CC[C@H](NC(=O)c2cc3c(C)nn(C4CCCCC4)c3s2)CC1 [Example 80, N-[trans-4-(Acetylamino)cyclohexyl]-1-cyclohexyl-3-methyl-1H-thieno[2,3-c]pyrazole-5-carboxamide] | 2500 | 60 |
| Cc1nn(C2CCCCC2)c2sc(C(=O)Nc3ccc(C(=O)NCCO)nc3)cc12 [Example 379, 1-Cyclohexyl-N-(6-{[(2-hydroxyethyl)amino]carbonyl}-3-pyridinyl)-3-methyl-1H-thieno[2,3-c]pyrazole-5-carboxamide] | 1200 | 13 |
| CC(=O)N1CCCN([C@H]2CC[C@H](NC(=O)c3cc4c(C)nn(C5CCCCC5)c4s3)CC2)CC1 [Example 171, N-[trans-4-(4-Acetyl-1,4-diazepam-1-yl)cyclohexyl]-1-cyclohexyl-3-methyl-1H-thieno[2,3-c]pyrazole-5-carboxamide] | 1700 | 37 |

Reference: US8901315B2, “Thienopyrazole derivative having PDE7 inhibitory activity” (Daiichi Sankyo Company, Limited, priority 2004, dated 2014)
